Laboratory results reported in publication PMC8752738, “A propolis-derived small molecule ameliorates metabolic syndrome in obese mice by targeting the CREB/CRTC2 transcriptional complex” (Nature Communications, 2022).
Values joined by “and” are separate entries in the source; they are usually repeats but may differ in a detail not shown here. Equal values may be shown once. “Also recorded” adds a separate entry of the source.

Experiments:
Assay type in all cases: cell-based
[1] = molecular target: T1, endogenous CRTC2 / CBP interaction (Mus musculus, UniProt P45481+Q3U182); experiment: Co-immunoprecipitation by anti-CRTC2 antibody, primary hepatocytes: CBP
T1 construct: endogenous in cells; host or cells: mouse primary hepatocytes
Experimental: Fig. 2 APC blocks interaction between CREB and CRTC2. a Analysis of GST-CREB immunoprecipitated with overexpressed FLAG-CRTC2 from the lysates of HEK293T cells. APC (10 μM) was added to the culture media for 1 h and the following IP mixture. The relative gray density of FLAG in GST-pull-down fraction is shown as a bar graph (bottom). One of three independent experiments is presented (top, n = 3). Data are represented as mean ± SEM); P values were determined by one-way ANOVA followed Dunnett’s multiple comparisons test. b Analysis of HA-CRTC2 immunoprecipitated with endogenous CREB from primary hepatocyte lysates. […] Data are represented as mean ± SEM; P values were determined by one-way ANOVA followed Dunnett’s multiple comparisons test. c Immunoblotting analysis of endogenous CREB, CRTC2, and CBP interaction by an anti-CRTC2 antibody from the lysate of primary hepatocytes. […] Data are represented as mean ± SEM; P values were determined by two-way ANOVA followed Bonferroni’s multiple comparisons test. d Immunoblotting analysis of protein GST-CREB recovered HIS-CRTC2-S171A proteins purified from E. coli. […] Data are represented as mean ± SEM; P values were determined by one-way ANOVA followed Dunnett’s multiple comparisons test (compared with APC = 0). […]

CBP = CBP (Homo sapiens, UniProt Q92793); experiment: Acetyltransferase activity of CBP (H3K27ac immunoblot, HEK293 cells); settings: for relative H3K27ac level: Fig 3d replicates, HA-CBP +, TSA-0.5uM +
Text: Fig. 3 APC inhibits CRTC2 interacting with CREB-ZIP and reduces acetyltransferase activity of CBP by binding with CREB protein directly. a Isothermal titration calorimetry (ITC) of HIS-CREB protein solution titrated into APC solution. The bottom solid line represents a nonlinear least-squares fitted by a single-site binding model. One of two independent experiments is shown here. b IC50 of APC inhibitory activity detected by CREB–CRTC2 two-hybrid assay in HEK293T cells (n = 3 per treatment, data are represented as mean ± SEM). One of three independent experiments is shown here. c Immunoprecipitation analysis of FLAG-CRTC2-WT recovered by anti-MYC antibody from HEK293 cells co-transfected with plasmids for a Myc-Creb-Zip fragment and the FLAG-Crtc2-Wt, stimulated by FSK (10 nM) for 2-h before harvest. APC (1–10 μM) was included in immunoprecipitation mixtures as indicated. Top represents one of three independent experiments, and the relative gray density of FLAG normalized to MYC in MYC-IP- factions is shown as a bar graph (bottom, n = 3). Data are represented as mean ± SEM; P values were determined by one-way ANOVA followed Dunnett’s multiple comparisons test. d Immunoblotting analysis of the acetyltransferase activity of CBP. The protein levels of H3K27ac and total Histone H3 were determined using specific antibodies from HEK293 cell lysate overexpressing HA-Cbp plasmid. […] The top represents one of three independent experiments, and the relative gray density of H3K27ac normalized to total Histone H3 in cell lysate is shown as a bar graph (bottom, n = 3). Data are represented as mean ± SEM; P values were determined by one-way ANOVA followed Dunnett’s multiple comparisons test. ns, P > 0.05; *P < 0.05; **P < 0.01. Sources data for this figure are provided as source data file.

[2] = molecular target: T2, CREB-KID / CBP-KIX interaction (Homo sapiens, UniProt P16220); experiment: Two-hybrid assay BD-CREB-KID / AD-CBP-KIX; settings: HEK293T, 10 μM, 8-h
T2 construct: CBP-KIX and CREB-KID domains as determined by two-hybrid assay; expressed in transfected cells; host or cells: HEK293T
T2 sequence (P16220 87-146 limits assumed): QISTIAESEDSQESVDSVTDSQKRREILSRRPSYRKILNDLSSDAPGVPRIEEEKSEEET

Chain of CBP (Q92793 whole entry): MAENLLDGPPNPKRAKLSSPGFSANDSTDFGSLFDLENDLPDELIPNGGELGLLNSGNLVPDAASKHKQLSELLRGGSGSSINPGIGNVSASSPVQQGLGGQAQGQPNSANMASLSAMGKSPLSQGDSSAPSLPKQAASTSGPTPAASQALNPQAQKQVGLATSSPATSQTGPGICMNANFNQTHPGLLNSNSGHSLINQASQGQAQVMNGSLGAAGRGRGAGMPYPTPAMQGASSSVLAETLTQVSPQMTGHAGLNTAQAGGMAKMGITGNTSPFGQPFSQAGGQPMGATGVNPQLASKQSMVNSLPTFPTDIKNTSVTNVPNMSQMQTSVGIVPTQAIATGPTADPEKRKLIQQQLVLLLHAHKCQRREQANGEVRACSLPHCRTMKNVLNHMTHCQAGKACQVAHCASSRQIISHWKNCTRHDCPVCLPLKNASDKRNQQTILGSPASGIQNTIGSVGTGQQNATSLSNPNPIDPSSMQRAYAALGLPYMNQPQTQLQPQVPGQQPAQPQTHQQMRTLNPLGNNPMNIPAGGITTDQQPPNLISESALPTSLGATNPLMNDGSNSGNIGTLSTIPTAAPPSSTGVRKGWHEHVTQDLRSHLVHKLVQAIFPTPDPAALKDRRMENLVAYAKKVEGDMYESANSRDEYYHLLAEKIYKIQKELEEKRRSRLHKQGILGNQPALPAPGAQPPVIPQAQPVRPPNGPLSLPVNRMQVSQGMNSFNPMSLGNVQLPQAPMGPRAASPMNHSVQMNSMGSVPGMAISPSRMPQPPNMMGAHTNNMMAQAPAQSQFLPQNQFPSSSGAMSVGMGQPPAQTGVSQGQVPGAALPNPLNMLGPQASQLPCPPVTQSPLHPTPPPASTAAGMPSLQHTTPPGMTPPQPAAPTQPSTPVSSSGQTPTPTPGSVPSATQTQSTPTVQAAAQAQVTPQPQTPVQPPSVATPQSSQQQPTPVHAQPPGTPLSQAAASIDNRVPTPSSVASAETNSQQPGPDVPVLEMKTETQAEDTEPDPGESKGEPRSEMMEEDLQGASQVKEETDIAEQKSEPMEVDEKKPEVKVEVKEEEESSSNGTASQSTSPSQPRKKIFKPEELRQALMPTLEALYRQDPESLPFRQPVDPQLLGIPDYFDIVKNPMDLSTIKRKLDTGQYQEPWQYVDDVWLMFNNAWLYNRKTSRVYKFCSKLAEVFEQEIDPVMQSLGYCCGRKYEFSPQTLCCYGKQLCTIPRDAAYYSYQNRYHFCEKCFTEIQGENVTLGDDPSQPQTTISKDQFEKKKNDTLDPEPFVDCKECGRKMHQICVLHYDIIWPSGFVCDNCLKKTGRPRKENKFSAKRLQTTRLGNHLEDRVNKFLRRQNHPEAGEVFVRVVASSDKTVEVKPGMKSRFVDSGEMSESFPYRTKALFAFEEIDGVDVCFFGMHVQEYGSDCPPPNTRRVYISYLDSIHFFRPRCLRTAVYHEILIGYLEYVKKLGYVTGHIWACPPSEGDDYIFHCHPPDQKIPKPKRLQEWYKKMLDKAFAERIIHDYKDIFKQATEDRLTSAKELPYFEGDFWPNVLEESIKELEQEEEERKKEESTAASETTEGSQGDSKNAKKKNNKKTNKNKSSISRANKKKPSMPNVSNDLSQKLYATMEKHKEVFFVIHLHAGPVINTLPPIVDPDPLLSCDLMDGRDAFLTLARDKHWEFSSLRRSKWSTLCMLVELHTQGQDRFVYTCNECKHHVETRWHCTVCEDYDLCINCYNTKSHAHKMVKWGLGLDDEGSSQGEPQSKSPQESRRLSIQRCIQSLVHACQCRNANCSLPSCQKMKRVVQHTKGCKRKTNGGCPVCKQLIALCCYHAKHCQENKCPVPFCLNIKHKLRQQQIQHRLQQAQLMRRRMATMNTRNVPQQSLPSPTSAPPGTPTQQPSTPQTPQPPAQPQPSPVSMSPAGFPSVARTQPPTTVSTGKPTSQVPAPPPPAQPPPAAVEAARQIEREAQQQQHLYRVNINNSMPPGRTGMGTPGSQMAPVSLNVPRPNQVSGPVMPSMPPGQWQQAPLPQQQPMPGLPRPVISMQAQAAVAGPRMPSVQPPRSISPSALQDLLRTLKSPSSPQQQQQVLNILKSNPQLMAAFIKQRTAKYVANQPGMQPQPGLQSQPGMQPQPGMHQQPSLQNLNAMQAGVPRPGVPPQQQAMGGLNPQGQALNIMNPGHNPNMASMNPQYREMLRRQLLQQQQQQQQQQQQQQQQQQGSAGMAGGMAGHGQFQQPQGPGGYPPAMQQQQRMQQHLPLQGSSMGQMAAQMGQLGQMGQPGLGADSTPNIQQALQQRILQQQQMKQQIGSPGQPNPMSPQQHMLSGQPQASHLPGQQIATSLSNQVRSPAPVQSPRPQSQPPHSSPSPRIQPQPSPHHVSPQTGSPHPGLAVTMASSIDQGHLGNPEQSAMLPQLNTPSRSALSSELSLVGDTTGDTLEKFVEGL

CC(C)=CCc1cc(C=CC(=O)O)cc(CC=C(C)C)c1O [APC, 3,5-diprenyl-4-hydroxycinnamic acid]
CBP/CRTC2 band gray signal, CRTC2-COIP fraction ([1]; Fig 2c replicates, APC+ (10 μM)): 0.6163 and 0.6152 and 0.6031
interaction between endogenous CRTC2 and CBP ([1]; primary hepatocytes, APC 10 μM): little effect
relative H3K27ac level (CBP; APC 2 uM): 1.193 and 1.187 and 1.293
relative H3K27ac level (CBP; APC 5 uM): 0.5384 and 0.3648 and 0.6529
acetylation level of H3K27ac induced by CBP (CBP; HEK293 cells overexpressing HA-Cbp): dose-dependently reduced
interaction of CBP-KIX and CREB-KID domains (two-hybrid) [2]: little effect; also recorded: neither APC nor A57 reduced
